Measured values reported in patent publication US12194051B2, “5-azaindazole derivatives as adenosine receptor antagonists” (MERCK PATENT GMBH, priority 2018, dated 2025).

Assays:
[1] = biological target: T1, human A2A receptors (Homo sapiens, UniProt P29274); experiment: Inhibition of human A2A receptor in recombinant HEK293 cells, cAMP quantification (HTRF); type: cell-based; settings: read-out: A2A (Category)
T1 construct: expressed in transfected cells; host or cells: HEK293
Protocol: (§1) The functional activities of human A2A and A2B receptors were determined by quantification of cAMP, being the second messenger for adenosine receptors.
(§2) After a 15 min incubation, HTRF reagents (cAMP dynamic 2, Cis Bio) were added and the cellular cAMP levels were determined using the ENVISION (Perkin Elmer) plate reader.

[2] = biological target: T2, human A2B receptors (Homo sapiens, UniProt P29275); experiment: Inhibition of human A2B receptor in recombinant HEK293 cells, cAMP quantification (HTRF); type: cell-based; settings: read-out: A2B (Category)
T2 construct: expressed in transfected cells; host or cells: HEK293
T2 sequence (P29275 1-332): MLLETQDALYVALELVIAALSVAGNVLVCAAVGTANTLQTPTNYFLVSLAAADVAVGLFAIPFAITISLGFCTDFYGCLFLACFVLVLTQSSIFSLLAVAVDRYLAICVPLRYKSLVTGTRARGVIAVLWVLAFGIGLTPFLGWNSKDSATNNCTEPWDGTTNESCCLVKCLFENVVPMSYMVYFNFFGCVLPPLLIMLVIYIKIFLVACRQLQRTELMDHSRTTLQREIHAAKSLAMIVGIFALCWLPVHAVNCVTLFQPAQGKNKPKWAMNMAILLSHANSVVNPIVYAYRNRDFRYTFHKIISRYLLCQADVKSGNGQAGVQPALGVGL
Protocol: as §1, §2

T1 sequence (P29274 whole entry): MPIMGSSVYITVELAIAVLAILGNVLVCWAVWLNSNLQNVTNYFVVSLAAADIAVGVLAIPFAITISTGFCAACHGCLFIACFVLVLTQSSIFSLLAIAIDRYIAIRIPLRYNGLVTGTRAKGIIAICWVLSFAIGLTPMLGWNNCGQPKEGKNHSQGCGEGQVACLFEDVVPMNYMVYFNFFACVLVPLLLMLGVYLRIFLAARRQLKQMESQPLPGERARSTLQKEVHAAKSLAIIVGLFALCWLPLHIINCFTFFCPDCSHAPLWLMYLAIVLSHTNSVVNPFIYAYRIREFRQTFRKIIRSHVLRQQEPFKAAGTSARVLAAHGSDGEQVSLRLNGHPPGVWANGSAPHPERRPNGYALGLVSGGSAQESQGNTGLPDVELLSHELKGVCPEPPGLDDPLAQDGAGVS

Row | Compound | IC50 [1] [nM] | IC50 [2] [nM]
1 | CS(=O)(=O)Cn1nc(Nc2ccc(F)cn2)c2cnc(C(=O)N3CCCOCC3)cc21 [Compound 77, [3-(5-Fluoro-pyridin-2-ylamino)-1-methanesulfonylmethyl-1H-pyrazolo[4,3-c]pyridin-6-yl]-[1,4]oxazepan-4-yl-methanone] | < 100 | < 100
2 | CS(=O)(=O)Cn1nc(Nc2ccc(Cl)cn2)c2cnc(C(=O)N3CCCOCC3)cc21 [Compound 78, [3-(5-Chloro-pyridin-2-ylamino)-1-methanesulfonylmethyl-1H-pyrazolo[4,3-c]pyridin-6-yl]-[1,4]oxazepan-4-yl-methanone] | < 100 | < 100
3 | CS(=O)(=O)Cn1nc(Nc2cc(Cl)ccn2)c2cnc(C(=O)N3CCCOCC3)cc21 [Compound 79, [3-(4-Chloro-pyridin-2-ylamino)-1-methanesulfonylmethyl-1H-pyrazolo[4,3-c]pyridin-6-yl]-[1,4]oxazepan-4-yl-methanone] | < 100 | < 100
4 | O=C(c1cc2c(cn1)c(Nc1ccc(F)c(F)n1)nn2CC(F)(F)F)N1CCCOCC1 [Compound 80, [3-[(5,6-difluoro-2-pyridyl)amino]-1-(2,2,2-trifluoroethyl)pyrazolo[4,3-c]pyridin-6-yl]-(1,4-oxazepan-4-yl)methanone] | < 100 | < 100
5 | O=C(c1cc2c(cn1)c(Nc1cncs1)nn2CC(F)(F)F)N1CCCOCC1 [Compound 84, [1,4]Oxazepan-4-yl-[3-(thiazol-5-ylamino)-1-(2,2,2-trifluoro-ethyl)-1H-pyrazolo[4,3-c]pyridin-6-yl]methanone] | < 100 | < 100

Second part, the compound after the results:

Row | IC50 [1] [nM] | IC50 [2] [nM] | Compound
6 | < 100 | < 100 | O=C(c1cc2c(cn1)c(Nc1cc(F)c(Cl)cn1)nn2CC(F)(F)F)N1CCCOCC1 [Compound 71, [3-[(5-chloro-4-fluoro-2-pyridyl)amino]-1-(2,2,2-trifluoroethyl)pyrazolo[4,3-c]pyridin-6-yl]-(1,4-oxazepan-4-yl)methanone]
7 | < 100 | < 1000 | O=C(c1cc2c(cn1)c(Nc1ccncn1)nn2CC(F)(F)F)N1CCCOCC1 [Compound 73, [1,4]Oxazepan-4-yl-[3-(pyrimidin-4-ylamino)-1-(2,2,2-trifluoro-ethyl)-1H-pyrazolo[4,3-c]pyridin-6-yl]-methanone]
8 | < 100 | < 100 | O=C(c1cc2c(cn1)c(Nc1cnccn1)nn2CC(F)(F)F)N1CCC(O)CC1 [Compound 74, (4-Hydroxy-piperidin-1-yl)-[3-(pyrazin-2-ylamino)-1-(2,2,2-trifluoro-ethyl)-1H-pyrazolo[4,3-c]pyridin-6-yl]-methanone]
9 | < 100 | < 100 | O=C(c1cc2c(cn1)c(Nc1cnc(Cl)cn1)nn2CC(F)(F)F)N1CCC(O)CC1 [Compound 75, [3-(5-Chloro-pyrazin-2-ylamino)-1-(2,2,2-trifluoro-ethyl)-1H-pyrazolo[4,3-c]pyridin-6-yl]-(4-hydroxy-piperidin-1-yl)-methanone]
10 | < 100 | < 1000 | O=C(c1cc2c(cn1)c(Nc1ccncn1)nn2CC(F)(F)F)N1CCC(O)CC1 [Compound 76, (4-Hydroxy-piperidin-1-yl)-[3-(pyrimidin-4-ylamino)-1-(2,2,2-trifluoro-ethyl)-1H-pyrazolo[4,3-c]pyridin-6-yl]-methanone]
11 | < 100 | < 1000 | COc1cc(Nc2nn(CC(F)(F)F)c3cc(C(=O)N4CCCOCC4)ncc23)ncc1F [Compound 81, [3-[(5-fluoro-4-methoxy-2-pyridyl)amino]-1-(2,2,2-trifluoroethyl)pyrazolo[4,3-c]pyridin-6-yl]-(1,4-oxazepan-4-yl)methanone]
12 | < 100 | < 100 | COc1ccc(Nc2nn(CC(F)(F)F)c3cc(C(=O)N4CCCOCC4)ncc23)nc1 [Compound 83, [3-(5-Methoxy-pyridin-2-ylamino)-1-(2,2,2-trifluoro-ethyl)-1H-pyrazolo[4,3-c]pyridin-6-yl]-[1,4]oxazepan-4-yl-methanone]
